For one experiment, the target named is CSK-EGFP (Homo sapiens, UniProt P41240). Put plainly: Fluorescent pattern of CSK-EGFP co-localized with magnetic materials in live HeLa cells under a magnetic field. The experiment is classed as cell-based. The conditions noted are these: HeLa cells transfected with CMV-CSK-EGFP; ligand presented on magnetic particles (MNP); NDGA 25~50 μM; magnetic field applied; FIG. 10(A).

The next experiment deals with T1, SNF1LK-EGFP (Homo sapiens, UniProt P57059).
T1 construct: ORF(open reading frame) clone without a stop codon was purchased from Open Biosystems; expressed in transfected cells; host or cells: HeLa
Put plainly: Fluorescent pattern of SNF1LK-EGFP co-localized with magnetic materials in live HeLa cells under a magnetic field. The format is cell-based. As to conditions: HeLa cells transfected with CMV-SNF1LK-EGFP; ligand presented on magnetic particles (MNP); NDGA 25~50 μM; magnetic field applied; FIG. 10(B).

Chain of CSK-EGFP (P41240 whole entry): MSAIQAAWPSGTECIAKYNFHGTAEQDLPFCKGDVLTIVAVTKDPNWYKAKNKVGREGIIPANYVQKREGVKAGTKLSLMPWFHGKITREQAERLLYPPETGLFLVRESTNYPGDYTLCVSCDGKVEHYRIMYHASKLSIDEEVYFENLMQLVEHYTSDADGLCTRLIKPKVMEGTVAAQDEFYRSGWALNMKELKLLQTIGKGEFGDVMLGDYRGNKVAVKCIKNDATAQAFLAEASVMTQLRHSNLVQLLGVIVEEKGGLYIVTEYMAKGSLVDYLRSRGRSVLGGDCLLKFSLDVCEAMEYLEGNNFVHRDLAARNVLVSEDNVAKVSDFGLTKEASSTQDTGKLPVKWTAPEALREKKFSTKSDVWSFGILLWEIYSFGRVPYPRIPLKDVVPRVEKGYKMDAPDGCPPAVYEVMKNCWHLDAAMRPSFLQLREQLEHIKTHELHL
T1 sequence (P57059 whole entry): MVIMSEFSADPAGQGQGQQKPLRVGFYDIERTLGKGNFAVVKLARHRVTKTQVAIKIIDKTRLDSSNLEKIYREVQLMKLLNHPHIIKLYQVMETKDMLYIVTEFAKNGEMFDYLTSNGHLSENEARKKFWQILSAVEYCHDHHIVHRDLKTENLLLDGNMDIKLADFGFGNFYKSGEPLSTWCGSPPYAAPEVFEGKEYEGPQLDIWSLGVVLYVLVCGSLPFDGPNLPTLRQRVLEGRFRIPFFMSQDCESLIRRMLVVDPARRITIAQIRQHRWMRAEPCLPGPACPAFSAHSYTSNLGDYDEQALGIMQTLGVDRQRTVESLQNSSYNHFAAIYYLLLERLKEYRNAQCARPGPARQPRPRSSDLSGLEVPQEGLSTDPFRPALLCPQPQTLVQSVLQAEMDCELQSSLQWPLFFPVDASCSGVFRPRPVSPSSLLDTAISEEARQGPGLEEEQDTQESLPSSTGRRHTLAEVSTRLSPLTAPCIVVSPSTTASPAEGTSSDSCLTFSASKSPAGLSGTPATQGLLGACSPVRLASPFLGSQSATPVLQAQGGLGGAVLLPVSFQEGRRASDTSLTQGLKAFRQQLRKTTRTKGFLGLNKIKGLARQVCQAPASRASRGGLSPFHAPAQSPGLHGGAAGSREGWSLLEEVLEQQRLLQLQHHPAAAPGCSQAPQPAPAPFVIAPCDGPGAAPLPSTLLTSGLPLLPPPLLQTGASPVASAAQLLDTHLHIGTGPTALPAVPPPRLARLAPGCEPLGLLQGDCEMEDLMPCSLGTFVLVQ
Description for CSK-EGFP: (§1) In this embodiment, it was observed whether a magnetized pattern of a plurality of magnetic materials formed by applying a magnetic field could be imaged by fluorescent labels when a surface-modified magnetic material was labeled with a fluorescent label through a mediator indirectly as well as directly. In addition, it was identified whether a fluorescent pattern was formed and overlapped (co-localized) with a pattern formed by magnetic materials in a direction of a line of magnetic force or not.
(§2) In addition, CSK (GenBank Acc. No. NM—004383.1) or SNF1LK (GenBank Acc. No. BCO38504) which binds to dasatinib was used for another linker constituting a mediator.
After HeLa cells were subcultured to 5,000˜10,000 cells/well on a 96-well plate, the HeLa cells were transfected by the expression vector DNA prepared as above. […] Magnetic materials coated with dasatinib-biotin were into the cells transfected with DNA by the method mentioned in Example 2, and then NDGA (Nordihydroguaiaretic acid, Sigma) was treated to the final concentration of 25˜50 μM.
In this embodiment, Olympus fluorescence microscope, FV1000, equipped with the object lens of Uplan Apo 40×/0.85 was used to obtain transmitted images in the cells.
Description for SNF1LK-EGFP: as §1, §2
A clone of SNF1LK (GenBank Acc. No. BCO38504) ORF(open reading frame) clone without a stop codon was purchased from Open Biosystems. SNF1LK ORF clone and CSK ORF clone were cloned into pCMV-DEST-EGFP by a known cloning method to produce CMV-SNF1LK-EGFP and CMV-CSK-EGFP expression vectors (Hartley, et al. (2000) DNA cloning using in vitro site-specific recombination. Genome Res. 10, 1788-1795).
After HeLa cells were subcultured to 5,000˜10,000 cells/well on a 96-well plate, the HeLa cells were transfected by the expression vector DNA prepared as above. […]

Take `Cc1nc(Nc2ncc(C(=O)Nc3c(C)cccc3Cl)s2)cc(N2CCN(CCO)CC2)n1` [dasatinib, N-(2-chloro-6-methyl-phenyl)-2-(6-(4-(2-hydroxyethyl)-piperazin-1-yl)-2-methylpyrimidin-4-ylamino)thiazole-5-carboxamide]: the “fluorescent pattern of EGFP in a magnetized direction (direction of a line of magnetic force)” value on CSK-EGFP and at SNF1LK-EGFP was “identified” throughout.
